Biological target: Glutaminyl-peptide cyclotransferase (Homo sapiens, UniProt Q16769)
Test: Inhibition of N-terminal his6-tagged human recombinant glutaminyl cyclase expressed in Escherichia coli using H-Gln-AMC as substrate incubated for 60 mins in presence of pyroglutamyl peptidase

Glutaminyl-peptide cyclotransferase, sequence (Q16769 whole entry): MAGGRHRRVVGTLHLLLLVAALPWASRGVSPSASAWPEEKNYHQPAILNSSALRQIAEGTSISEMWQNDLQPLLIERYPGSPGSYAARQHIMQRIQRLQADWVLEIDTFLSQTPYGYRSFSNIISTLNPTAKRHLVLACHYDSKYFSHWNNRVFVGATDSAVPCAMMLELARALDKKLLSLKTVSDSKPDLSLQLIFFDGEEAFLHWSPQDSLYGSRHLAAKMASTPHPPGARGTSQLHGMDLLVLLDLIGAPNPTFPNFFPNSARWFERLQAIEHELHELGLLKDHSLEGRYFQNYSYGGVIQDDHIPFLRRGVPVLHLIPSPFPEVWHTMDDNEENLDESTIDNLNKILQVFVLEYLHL

## COc1ccc(S(=O)(=O)Nc2ccc(-c3cn[nH]c3)cc2)cc1
  IC50: > 30 µM
